Eleven compounds from ChEMBL document CHEMBL1201862, “PubChem BioAssay data set” (2004) can be followed below.

Among the test systems are 786-0; BT-549; CCRF-CEM; COLO 205; HCC 2998; K562; MDA-MB-231; MDA-N; Malme-3M; NCI-H226; NCI-H23; OVCAR-5; SF-295; SF-539; SK-OV-3; SN12C; SNB-19; SNB-75; SR.
Common to all, as to assay: inhibition of tumour cell growth, NCI panel, 48 h

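Interpolation was linear, between the two tested concentrations surrounding the appropriate level; five concentrations were tested over 48 hours in 96-well plates. GI50 is the concentration that inhibits growth by half.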 Activity calls are given as the source filed them. Rule as the data show it: active = GI50 up to about 1.1 µM and inactive = higher.

With `O=[N+]([O-])C(=C1Nc2ccccc2N1)/C(Cl)=C(/Cl)N1CCOCC1`, the GI50 in the experiment with 786-0 was 98.9 µM (inactive); with BT-549, 27.5 µM (inactive); in the experiment on CCRF-CEM, 50.8 µM (inactive); in the experiment with COLO 205, 80.9 µM (inactive); in the experiment with HCC 2998, > 100 µM (inactive); in the experiment with K562, 43.3 µM (inactive). The GI50 with MDA-MB-231 is 36.1 µM (inactive); in the experiment on MDA-N, > 100 µM (inactive); with Malme-3M it was 27.2 µM (inactive); in the experiment with NCI-H226, > 100 µM (inactive); in the experiment on NCI-H23, 29.3 µM (inactive); in the experiment on OVCAR-5, > 100 µM (inactive). In addition, the GI50 is 98.4 µM (inactive) with SF-295; > 100 µM (inactive) in the experiment on SF-539; > 100 µM (inactive) in the experiment with SK-OV-3; > 100 µM (inactive) with SN12C; > 100 µM (inactive) in the experiment on SNB-19; 97.7 µM (inactive) in the experiment with SNB-75.
As for `O=C(O)c1ccccc1/C=N/N=C1c2ccccc2-c2ccccc21`, the GI50 is 29.6 µM (inactive) in the experiment on 786-0; 71.9 µM (inactive) in the experiment on BT-549; 25.5 µM (inactive) in the experiment with CCRF-CEM; 32.1 µM (inactive) in the experiment with COLO 205; 32.1 µM (inactive) in the experiment on K562; 59 µM (inactive) with MDA-MB-231. Further, the GI50 was 37.5 µM (inactive) in the experiment with MDA-N; 23.3 µM (inactive) in the experiment on Malme-3M; 20.8 µM (inactive) in the experiment with NCI-H226; 38.5 µM (inactive) in the experiment with NCI-H23; 50.2 µM (inactive) in the experiment with OVCAR-5; 29.3 µM (inactive) in the experiment on SF-295. The GI50 was 27.9 µM (inactive) in the experiment on SF-539; 44.9 µM (inactive) with SK-OV-3; 28.2 µM (inactive) in the experiment on SN12C; 39.9 µM (inactive) with SNB-19; 27.3 µM (inactive) in the experiment on SR.
On to `CC1=CC(=O)/C(=C/Nc2nc(-c3ccc([N+](=O)[O-])cc3)cs2)C(=O)O1`, for which the GI50 was > 100 µM (inactive) in the experiment with 786-0; > 100 µM (inactive) with BT-549; 31.5 µM (inactive) with CCRF-CEM; > 100 µM (inactive) in the experiment with COLO 205; > 100 µM (inactive) with HCC 2998; > 100 µM (inactive) in the experiment on K562. Besides, the GI50 in the experiment with MDA-MB-231, with MDA-N, with NCI-H226, in the experiment with NCI-H23, in the experiment with OVCAR-5 and in the experiment with SF-295 was > 100 µM (inactive) throughout. For the same compound, the GI50 with SF-539 was > 100 µM (inactive); with SK-OV-3, > 100 µM (inactive); in the experiment on SN12C, > 100 µM (inactive); in the experiment on SNB-19 it was 86.5 µM (inactive); with SNB-75 it was > 100 µM (inactive).
Turning to `CC(=O)/C=N/CC(=O)O`, the GI50 with 786-0, with BT-549, in the experiment with CCRF-CEM, in the experiment with COLO 205, in the experiment on K562 and in the experiment with MDA-MB-231 was > 100 µM (inactive) in each case. Moreover, the GI50 in the experiment with MDA-N, in the experiment with Malme-3M, with NCI-H226, in the experiment with NCI-H23, in the experiment on OVCAR-5 and in the experiment on SF-295 was > 100 µM (inactive) each time. Moreover, the GI50 with SF-539, in the experiment on SK-OV-3, in the experiment with SN12C, in the experiment with SNB-19, with SNB-75 and in the experiment on SR was > 100 µM (inactive) each time.
On to `OCCN(CO)CO`, for which the GI50 in the experiment on 786-0 was 91.4 µM (inactive); in the experiment with BT-549, > 100 µM (inactive); with COLO 205, > 100 µM (inactive); with HCC 2998, > 100 µM (inactive); with K562, > 100 µM (inactive); with MDA-MB-231, > 100 µM (inactive). Besides, the GI50 with MDA-N, in the experiment with Malme-3M, in the experiment on NCI-H226, in the experiment with NCI-H23, in the experiment with SF-295 and in the experiment on SF-539 was > 100 µM (inactive) in each case. Besides, the GI50 in the experiment on SK-OV-3, in the experiment with SN12C, in the experiment on SNB-19 and with SNB-75 was > 100 µM (inactive) each time.
Turning to `C=CCOc1ccc(C(=N/NC(=O)c2ccccc2)/N=N/c2ccccc2)cc1OC`, the GI50 in the experiment with 786-0 is > 100 µM (inactive); in the experiment on BT-549, 42.5 µM (inactive); in the experiment with CCRF-CEM, 36.6 µM (inactive); with COLO 205, 55 µM (inactive); in the experiment with HCC 2998, 37.5 µM (inactive); in the experiment on MDA-MB-231, 70.6 µM (inactive). Further, the GI50 is > 100 µM (inactive) in the experiment on MDA-N; > 100 µM (inactive) in the experiment on Malme-3M; 60.5 µM (inactive) in the experiment with NCI-H226; 73.8 µM (inactive) in the experiment on NCI-H23; > 100 µM (inactive) in the experiment on OVCAR-5; > 100 µM (inactive) in the experiment on SF-295. Besides, the GI50 was > 100 µM (inactive) with SF-539; > 100 µM (inactive) with SN12C; > 100 µM (inactive) with SNB-19; > 100 µM (inactive) in the experiment with SNB-75; 77.1 µM (inactive) with SR.
Take `C=C(C)[C@@H]1CC[C@]2(C(=O)O)CC[C@]3(C)[C@H](CC[C@@H]4[C@@]5(C)CC[C@H](C(=O)/C=C/c6ccc(O)cc6)C(C)(C)[C@@H]5CC[C@]43C)[C@@H]12`: the GI50 is 4.92 µM (inactive) in the experiment with 786-0; 10.4 µM (inactive) in the experiment with BT-549; 2.39 µM (inactive) in the experiment with CCRF-CEM; 2.39 µM (inactive) in the experiment with COLO 205; 3.21 µM (inactive) in the experiment on HCC 2998; 3.11 µM (inactive) with K562. Besides, the GI50 in the experiment with MDA-MB-231 is 6.65 µM (inactive); in the experiment on MDA-N it was 4.72 µM (inactive); with Malme-3M it was 13.5 µM (inactive); in the experiment with NCI-H23, 4.22 µM (inactive); in the experiment on OVCAR-5, 11.5 µM (inactive); in the experiment with SF-295, 6.15 µM (inactive). The GI50 with SF-539 was 3.01 µM (inactive); in the experiment with SK-OV-3 it was 6.15 µM (inactive); with SN12C, 3.05 µM (inactive); in the experiment on SNB-19 it was 6.92 µM (inactive); with SNB-75, > 10 µM (inactive); in the experiment on SR it was 4.06 µM (inactive).
Regarding `O=C1NC(=S)N/C1=C\c1ccc(Cl)cc1`, the GI50 is > 100 µM (inactive) in the experiment on 786-0; > 100 µM (inactive) with BT-549; 54.2 µM (inactive) in the experiment on CCRF-CEM; 80.5 µM (inactive) in the experiment on COLO 205; > 100 µM (inactive) in the experiment with HCC 2998; > 100 µM (inactive) with MDA-MB-231. The GI50 in the experiment with MDA-N, in the experiment on Malme-3M, in the experiment with NCI-H226, with NCI-H23, with OVCAR-5 and in the experiment with SF-295 was > 100 µM (inactive) throughout. For the same compound, the GI50 in the experiment on SF-539, with SK-OV-3, with SN12C, with SNB-19 and with SNB-75 was > 100 µM (inactive) throughout.
In the case of `O=C1c2ccccc2-c2cc([N+](=O)[O-])c([N+](=O)[O-])cc21`, the GI50 is 2.25 µM (inactive) with 786-0; 1.92 µM (inactive) in the experiment on BT-549; 0.243 µM (active) in the experiment on CCRF-CEM; 2.11 µM (inactive) with COLO 205; 2.16 µM (inactive) in the experiment with K562; 1.8 µM (inactive) in the experiment with MDA-MB-231. The GI50 in the experiment with MDA-N is 2.35 µM (inactive); with Malme-3M, 1.91 µM (inactive); in the experiment on NCI-H226, 4.21 µM (inactive); in the experiment with NCI-H23, 1.91 µM (inactive); in the experiment on OVCAR-5, 2.18 µM (inactive); with SF-295 it was 1.65 µM (inactive). Moreover, the GI50 in the experiment on SF-539 was 0.485 µM (active); in the experiment on SK-OV-3, 2.66 µM (inactive); with SN12C, 1.86 µM (inactive); in the experiment with SNB-19 it was 1.71 µM (inactive); in the experiment with SNB-75, 1.82 µM (inactive); in the experiment on SR, 0.13 µM (active).
As to `O=C1C=CC2CCC1C2` (configuration not stated), the GI50 in the experiment with 786-0 was 40.9 µM (inactive); in the experiment with BT-549, 21.4 µM (inactive); in the experiment on CCRF-CEM it was 28.4 µM (inactive); in the experiment on COLO 205, 33.7 µM (inactive); in the experiment with HCC 2998 it was 30.1 µM (inactive); in the experiment with K562, 27.4 µM (inactive). The GI50 with MDA-MB-231 was 28.6 µM (inactive); in the experiment on MDA-N it was 25 µM (inactive); with Malme-3M it was 14.6 µM (inactive); with NCI-H226, 39.4 µM (inactive); in the experiment on NCI-H23, 20.6 µM (inactive); in the experiment on OVCAR-5, 26.2 µM (inactive). Also, the GI50 is 44.2 µM (inactive) with SF-295; 34.7 µM (inactive) in the experiment with SF-539; 24.4 µM (inactive) in the experiment on SK-OV-3; 30.4 µM (inactive) in the experiment with SN12C; 28.4 µM (inactive) in the experiment with SNB-19; 27.5 µM (inactive) in the experiment with SNB-75.
As to `O=[N+]([O-])C(Cl)C(Cl)C(Cl)=C(Cl)Cl` (configuration not stated), the GI50 in the experiment on 786-0 is 7.85 µM (inactive); in the experiment with BT-549, 22.6 µM (inactive); with CCRF-CEM, 23.7 µM (inactive); in the experiment with COLO 205 it was 17.5 µM (inactive); with HCC 2998, > 40.9 µM (inactive); with K562 it was 29.8 µM (inactive). Besides, the GI50 with MDA-MB-231 is 16.2 µM (inactive); with MDA-N, 19.1 µM (inactive); with Malme-3M, 14.8 µM (inactive); with NCI-H226, > 100 µM (inactive); in the experiment with NCI-H23, 23.8 µM (inactive); in the experiment with OVCAR-5, > 50.2 µM (inactive). The GI50 in the experiment with SF-295 is 60 µM (inactive); with SF-539, 38.5 µM (inactive); with SK-OV-3, 19.5 µM (inactive); with SN12C it was 33.7 µM (inactive); in the experiment with SNB-19, 54 µM (inactive); in the experiment on SNB-75 it was 32.7 µM (inactive).
